Experimental data reported in patent publication US20140030808A1, “Method for Cellular RNA Expression” (BIONTECH AG, priority 2010, published 2014).
Like-named read-outs stand apart in the source and are kept apart here.

System: Primary human foreskin fibroblasts (BJ, CCD1079Sk, HFF)
Format: cell-based
Details: 2 μM; for luciferase expression after transient treatment: BJ and CCD1079SK

For `Nc1ncc2[nH]cnc2n1` [2-aminopurine], the “luciferase expression after transient treatment” value (7 h incubation period) was “did not results in a significant increase of luciferase expression”, the “luciferase expression after transient treatment” value (24 h treatment) was “rapidly reversed after removal of the inhibitors” and the “luciferase expression after transient treatment” value (48 h treatment) was “less efficient than a permanent treatment”. For the same compound, the “duration of high luciferase expression levels” value (permanent inhibition) was 5 days.
